Reference: ChEMBL document CHEMBL4619734, “Molecule Property Analyses of Active Compounds for Mycobacterium tuberculosis” (J Med Chem, 2020)
Converted amounts (≈) assume the structure as drawn.

How the values were obtained:
[1] = test system: Mycobacterium tuberculosis; assay: Antimycobacterial activity against Mycobacterium tuberculosis; assay type: functional
[2] = test system: Mycobacterium tuberculosis; assay: Antimycobacterial activity against Mycobacterium tuberculosis H37Rv; assay type: functional
[3] = test system: Mycobacterium tuberculosis; assay: Antimycobacterial activity against Mycobacterium tuberculosis H37Rv ATCC 27294 assessed as reduction in mycolic acids synthesis after 8 hrs in presence of [1, 2-14C]-acetate by TLC analysis; assay type: functional; settings: H37Rv ATCC 27294, 8 h
[4] = test system: Mycobacterium tuberculosis; assay: Antimycobacterial activity against Mycobacterium tuberculosis H37Rv expressing LeuRS; assay type: functional
[5] = Inhibition of human cytoplasmic LeuRS
Leucine--tRNA ligase = target: T1, Leucine--tRNA ligase (Mycobacterium tuberculosis (strain ATCC 25618 / H37Rv), UniProt P9WFV1); assay: Inhibition of Mycobacterium tuberculosis LeuRS expressed in Escherichia coli Rosetta (DE3) cells
T1 sequence (P9WFV1 whole entry): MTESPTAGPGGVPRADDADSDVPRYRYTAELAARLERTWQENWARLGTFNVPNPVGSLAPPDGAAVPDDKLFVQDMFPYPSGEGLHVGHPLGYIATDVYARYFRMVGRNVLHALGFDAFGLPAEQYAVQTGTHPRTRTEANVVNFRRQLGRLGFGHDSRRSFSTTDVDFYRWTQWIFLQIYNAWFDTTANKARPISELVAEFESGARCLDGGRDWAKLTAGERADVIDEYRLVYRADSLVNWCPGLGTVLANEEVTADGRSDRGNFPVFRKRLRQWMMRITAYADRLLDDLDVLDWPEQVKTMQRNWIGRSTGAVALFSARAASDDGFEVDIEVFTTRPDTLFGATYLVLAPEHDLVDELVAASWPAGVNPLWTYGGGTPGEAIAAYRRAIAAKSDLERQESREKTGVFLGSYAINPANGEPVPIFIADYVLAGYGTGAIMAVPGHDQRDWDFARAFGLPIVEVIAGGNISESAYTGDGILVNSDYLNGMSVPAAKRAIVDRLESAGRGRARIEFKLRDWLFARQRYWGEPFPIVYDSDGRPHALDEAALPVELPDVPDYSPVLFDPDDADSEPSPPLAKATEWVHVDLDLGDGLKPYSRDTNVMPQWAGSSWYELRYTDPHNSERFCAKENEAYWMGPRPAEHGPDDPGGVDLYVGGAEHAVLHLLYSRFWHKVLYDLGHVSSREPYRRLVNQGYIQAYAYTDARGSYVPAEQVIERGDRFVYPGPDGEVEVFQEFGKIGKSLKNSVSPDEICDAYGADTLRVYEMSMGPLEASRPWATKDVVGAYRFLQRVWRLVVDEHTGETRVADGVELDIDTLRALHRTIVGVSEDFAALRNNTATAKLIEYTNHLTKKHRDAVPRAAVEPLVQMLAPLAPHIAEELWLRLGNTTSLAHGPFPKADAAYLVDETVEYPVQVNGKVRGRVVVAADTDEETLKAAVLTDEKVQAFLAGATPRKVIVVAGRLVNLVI

[6] = test system: Mycobacterium tuberculosis; assay: Antimycobacterial activity against Mycobacterium tuberculosis H37Ra after 7 to 8 days by MABA assay; assay type: functional
[7] = test system: Mycobacterium tuberculosis; assay: Antimycobacterial activity against Mycobacterium tuberculosis expressing Rv1258c efflux pump; assay type: functional
Mycobacterium avium [8] = assay: Antimycobacterial activity against Mycobacterium avium 33 expressing MraY; assay type: functional
[9] = test system: Mycobacterium tuberculosis; assay: Antimycobacterial activity against Mycobacterium tuberculosis clinical isolates; assay type: functional
[10] = test system: Mycobacterium tuberculosis; assay: Antimycobacterial activity against Mycobacterium tuberculosis expressing WecA; assay type: functional
Mycobacterium avium [11] = assay: Antimycobacterial activity against Mycobacterium avium infected in mouse assessed as reduction in mycolic acids synthesis; assay type: functional
[12] = test system: Mycolicibacterium smegmatis; assay: Antimycobacterial activity against Mycobacterium smegmatis; assay type: functional
[13] = test system: Mycobacterium tuberculosis; assay: Antimycobacterial activity against Mycobacterium tuberculosis expressing DprE1; assay type: functional

SMILES: c1ccc(-c2c[nH]cn2)cc1
- MIC [1]: < 10 µM

SMILES: CCCCS(=O)(=O)Nc1ccc2cnn(C)c2c1
- MIC [2]: 0.8 µM (≈ 0.214 µg/mL)

SMILES: COc1ccc(/C(C)=N/NC(N)=S)cc1
- MIC [3]: < 0.05 µg/mL

SMILES: NC[C@H]1OB(O)c2c(OCCO)ccc(Cl)c21
- MIC [4]: 0.08 µM (≈ 0.0206 µg/mL)
- IC50 [5]: 140 µM
- IC50 (Leucine--tRNA ligase): 216 nM

SMILES: NC(=O)c1sc(N2CCOCC2)cc1OCCc1ccc(OC(F)(F)F)cc1
- MIC [1]: 0.24 µM

SMILES: CCCCCCCCCCNC(CC(=O)OCC)[C@H]1O[C@@H]2OC(C)(C)O[C@@H]2C1OC (some centres not stated)
- MIC [6]: 3.12 µg/mL (≈ 7.26 µM)

SMILES: CN[C@H]1[C@@H](O)[C@@H](NC)CC2O[C@@H]3O[C@H](C)C[C@@H](NC(=O)Cc4ccc(O)cn4)[C@]3(O)C[C@@H]21 (some centres not stated)
- MIC [7]: 1.6 µg/mL (≈ 3.55 µM)

SMILES: CN[C@H]1[C@@H](O)[C@@H](NC)CC2O[C@@H]3O[C@H](C)C[C@@H](NC(=O)Cc4ccc(Cl)cn4)[C@]3(O)C[C@@H]21 (some centres not stated)
- MIC [7]: 0.8 µg/mL (≈ 1.71 µM)

SMILES: CO[C@H]1[C@@H](O)[C@H](n2ccc(=O)[nH]c2=O)O[C@@H]1[C@@H](O[C@H]1OC(C(=O)NC2CCC[C@@H](C)NC2=O)=C[C@H](O)[C@@H]1O)C(N)=O (some centres not stated)
- MIC (Mycobacterium avium [8]): 1 µg/mL (≈ 1.71 µM)

SMILES: Cc1ccc(OCCCCCCn2ccnc2)c(C)c1
- MIC [1]: 4.8 µg/mL

SMILES: CC(=O)NC[C@H]1CN(c2cc(F)c(C3=CCN(C(=O)[C@@H](O)CO)CC3)c(F)c2)C(=O)O1
- MIC [9]: 0.25 to 1 µg/mL (≈ 0.569 to 2.28 µM)

SMILES: CCCCc1ccc(NC(=O)C2=CCN(C)C(C(O[C@@H]3O[C@H](CN)[C@@H](O)[C@H]3O)[C@H]3OC(n4ccc(=O)[nH]c4=O)[C@H](O)[C@@H]3O)C(=O)N2C)cc1 (some centres not stated)
- MIC [10]: 1.56 µg/mL (≈ 2.27 µM)

SMILES: Cc1c(C(=O)C2CC2)[n+]([O-])c2cc(Cl)c(Cl)cc2[n+]1[O-]
- MIC [1]: 1.2 µg/mL

SMILES: Cc1nn2c(O)cc(-c3ncccn3)nc2c1-c1ccc(Cl)cc1
- MIC [1]: 1.1 µg/mL

SMILES: O=[N+]([O-])c1ccc(/C=N/Nc2nc(Nc3ccccc3)nc(N3CCOCC3)n2)o1
- MIC [1]: 0.63 µM

SMILES: O=[N+]([O-])c1ccc(/C=N/Nc2nc(Nc3ccccc3)nc(Nc3ccccc3)n2)o1
- MIC [1]: 0.078 µM

SMILES: Cc1ccc(C(=O)Nc2ccc([N+](=O)[O-])cc2)s1
- MIC [1]: 0.5 µg/mL

SMILES: CCCCCCCCc1nc2cc(C)c(C)cc2[nH]1
- MIC90 [1]: 0.75 µM

SMILES: CC(=O)Nc1ccc(/C=N/NC(N)=S)cc1 [AMITHIOZONE]
- MIC (Mycobacterium avium [11]): 0.1 µg/mL (≈ 0.423 µM)

SMILES: COc1nc2ccc(Br)cc2cc1[C@@H](c1ccccc1)[C@@](O)(CCN(C)C)c1cccc2ccccc12 [BEDAQUILINE]
- MIC99 [12]: 0.03 µg/mL (≈ 0.054 µM)

SMILES: C[C@H]1COC2(CCN(c3nc(=O)c4cc(C(F)(F)F)cc([N+](=O)[O-])c4s3)CC2)O1 [BTZ-043]
- MIC [13]: 1 ng/mL (≈ 0.00232 µM)

SMILES: C[C@]1(COc2ccc(N3CCC(Oc4ccc(OC(F)(F)F)cc4)CC3)cc2)Cn2cc([N+](=O)[O-])nc2O1 [DELAMANID]
- MIC [1]: 0.012 µg/mL

SMILES: NC(=S)N/N=C/c1cccnc1 [NICOTHIAZONE]
- MIC [3]: 3.1 µg/mL

SMILES: O=[N+]([O-])c1cn2c(n1)OC[C@@H](OCc1ccc(OC(F)(F)F)cc1)C2 [PRETOMANID]
- MIC90 [1]: 0.039 µg/mL

SMILES: CC(=O)NC[C@H]1CN(c2ccc(N3CCSCC3)c(F)c2)C(=O)O1 [SUTEZOLID]
- MIC [1]: 0.03 to 0.5 µg/mL
